Assays:
L1210 [1] = assay: Inhibition of RNA synthesis in mouse L1210 cells compound preincubated for 3 hrs followed by [3H]uridine addition measured after 1 hr by scintillation counting; format: functional
P388 [2] = assay: Antitumor activity against mouse P388 cells allografted in mouse assessed as increase in survival time at 16 mg/kg, ip qd administered starting on day 5,9 and 13 post challenge relative to control; format: functional; conditions: route intraperitoneal
P388 [3] = assay: Antitumor activity against mouse P388 cells allografted in mouse assessed as increase in survival time at 0.39 mg/kg, ip qd administered starting from day 1 to day 9 post challenge relative to control; format: functional; conditions: route intraperitoneal
P388 [4] = assay: Antitumor activity against mouse P388 cells allografted in mouse assessed as increase in survival time at 0.20 mg/kg, ip qd administered starting from day 1 to day 9 post challenge relative to control; format: functional; conditions: dose 0.2 mg/kg; route intraperitoneal
P388 [5] = assay: Antitumor activity against mouse P388 cells allografted in mouse assessed as increase in survival time at 4 mg/kg, ip qd administered starting on day 5,9 and 13 post challenge relative to control; format: functional; conditions: route intraperitoneal
P388 [6] = assay: Antitumor activity against mouse P388 cells allografted in mouse assessed as increase in survival time at 1.56 mg/kg, ip qd administered starting from day 1 to day 9 post challenge relative to control; format: functional; conditions: route intraperitoneal
P388 [7] = assay: Antitumor activity against mouse P388 cells allografted in mouse assessed as increase in survival time at 8 mg/kg, ip qd administered starting on day 5,9 and 13 post challenge relative to control; format: functional; conditions: route intraperitoneal
P388 [8] = assay: Antitumor activity against mouse P388 cells allografted in mouse assessed as increase in survival time at 0.78 mg/kg, ip qd administered starting from day 1 to day 9 post challenge relative to control; format: functional; conditions: route intraperitoneal
L1210 [9] = assay: Inhibition of DNA synthesis in mouse L1210 cells compound preincubated for 3 hrs followed by [3H]thymidine addition measured after 1 hr by scintillation counting; format: functional
P388 [10] = assay: Antitumor activity against mouse P388 cells allografted in mouse assessed as increase in survival time at 1 mg/kg, ip qd administered starting on day 5,9 and 13 post challenge relative to control; format: functional; conditions: route intraperitoneal
P388 [11] = assay: Antitumor activity against mouse P388 cells allografted in mouse assessed as increase in survival time at 2 mg/kg, ip qd administered starting on day 5,9 and 13 post challenge relative to control; format: functional; conditions: route intraperitoneal
Calf thymus DNA = assay: Binding affinity to calf thymus DNA by spectral analysis; format: nucleic-acid assay; conditions: Bos taurus
P388 [12] = assay: Antitumor activity against mouse P388 cells allografted in mouse assessed as increase in survival time at 1.5 mg/kg, ip qd administered starting from day 1 to day 9 post challenge relative to control; format: functional; conditions: route intraperitoneal
P388 [13] = assay: Antitumor activity against mouse P388 cells allografted in mouse assessed as increase in survival time at 5.3 mg/kg, ip qd administered starting from day 1 to day 9 post challenge relative to control; format: functional; conditions: route intraperitoneal
P388 [14] = assay: Antitumor activity against mouse P388 cells allografted in mouse assessed as increase in survival time at 4 mg/kg, ip qd administered starting from day 1 to day 9 post challenge relative to control; format: functional; conditions: route intraperitoneal
P388 [15] = assay: Antitumor activity against mouse P388 cells allografted in mouse assessed as increase in survival time at 3.5 mg/kg, ip qd administered starting from day 1 to day 9 post challenge relative to control; format: functional; conditions: route intraperitoneal
P388 [16] = assay: Antitumor activity against mouse P388 cells allografted in mouse assessed as increase in survival time at 8 mg/kg, ip qd administered starting from day 1 to day 9 post challenge relative to control; format: functional; conditions: route intraperitoneal
P388 [17] = assay: Antitumor activity against mouse P388 cells allografted in mouse assessed as increase in survival time at 12 mg/kg, ip qd administered starting from day 1 to day 9 post challenge relative to control; format: functional; conditions: route intraperitoneal
P388 [18] = assay: Antitumor activity against mouse P388 cells allografted in mouse assessed as increase in survival time at 3.13 mg/kg, ip qd administered starting from day 1 to day 9 post challenge relative to control; format: functional; conditions: route intraperitoneal
P388 [19] = assay: Antitumor activity against mouse P388 cells allografted in mouse assessed as increase in survival time at 6.25 mg/kg, ip qd administered starting from day 1 to day 9 post challenge relative to control; format: functional; conditions: route intraperitoneal

COc1cccc2c1C(=O)c1c(O)c3c(c(O)c1C2=O)C[C@@](O)(C(C)=O)C[C@@H]3O[C@H]1C[C@H](N)[C@H](O)[C@H](C)O1 [DAUNORUBICIN]
IC50 (L1210 [1]): 330 nM
T/C (P388 [2]): 127%
T/C (P388 [3]): 153%
T/C (P388 [4]): 144%
T/C (P388 [5]): 131%
T/C (P388 [6]): 148%
T/C (P388 [7]): 134%
T/C (P388 [8]): 167%
IC50 (L1210 [9]): 660 nM

COc1cccc2c1C(=O)c1c(O)c3c(c(O)c1C2=O)C[C@@](O)(C(=O)CO)C[C@@H]3O[C@H]1C[C@H](N)[C@H](O)[C@H](C)O1 [DOXORUBICIN]
IC50 (L1210 [1]): 580 nM
T/C (P388 [2]): 130%
T/C (P388 [3]): 174%
T/C (P388 [4]): 160%
T/C (P388 [10]): 133%
T/C (P388 [5]): 142%
T/C (P388 [11]): 133%
ΔTm (Calf thymus DNA): 13.4 °C
T/C (P388 [6]): 176%
T/C (P388 [7]): 157%
T/C (P388 [8]): 197%
IC50 (L1210 [9]): 1500 nM

CC[C@@]1(O)C[C@H](O[C@H]2C[C@H](N)[C@H](O)[C@H](C)O2)c2c(O)c3c(c(O)c2[C@H]1C(=O)OC)C(=O)c1cccc(O)c1C3=O.Cl
IC50 (L1210 [1]): 2600 nM
T/C (P388 [12]): 127%
T/C (P388 [13]): 139%
T/C (P388 [14]): 132%
ΔTm (Calf thymus DNA): 7.6 °C
T/C (P388 [15]): 130%
T/C (P388 [16]): 140%
IC50 (L1210 [9]): 5600 nM
T/C (P388 [17]): 141%

CC[C@]1(O)Cc2c(O)c3c(c(O)c2[C@@H](O[C@H]2C[C@H](N)[C@H](O)[C@H](C)O2)C1)C(=O)c1c(OC)cccc1C3=O
IC50 (L1210 [1]): 840 nM
T/C (P388 [3]): 140%
T/C (P388 [18]): 160%
ΔTm (Calf thymus DNA): 50 °C
T/C (P388 [6]): 160%
T/C (P388 [8]): 134%
IC50 (L1210 [9]): 1300 nM

COc1cccc2c1C(=O)c1c(O)c3c(c(O)c1C2=O)C[C@@](O)(CCO)C[C@@H]3O[C@H]1C[C@H](N)[C@H](O)[C@H](C)O1 [13-DEOXYDOXORUBICIN]
IC50 (L1210 [1]): 1100 nM
T/C (P388 [3]): 140%
T/C (P388 [18]): 164%
ΔTm (Calf thymus DNA): 6.15 °C
T/C (P388 [6]): 156%
T/C (P388 [8]): 161%
T/C (P388 [19]): 153%
IC50 (L1210 [9]): 1800 nM

From ChEMBL document CHEMBL3243937, “Adriamycin analogues. 2. Synthesis of 13-deoxyanthracyclines” (1978)
